For one data set, the system named is E. coli ATCC 25922. As to the kind of experiment: microbe, parasite or virus in culture. It counts as cell-based, Escherichia coli. The note with it: reference strain. As for the experimental part:
(§1) The antimicrobial activity of the synthesized compounds was evaluated against four reference bacterial strains: Staphylococcus aureus (ATCC 29213), Enterococcus faecalis (ATCC 29212), Escherichia coli (ATCC 25922), and Pseudomonas aeruginosa (ATCC 27853), which are commonly used for determining antibacterial activity. In addition, two clinical strains, S. aureus (MRSA) and E. faecium (VRE), were included in the study. The bacterial strains were inoculated from Selectrol discs (Biomaxima SA, Lublin, Poland) onto blood agar (Graso Biotech, Starogard Gdański, Poland) and incubated at 37 °C for 24 h. Before testing, the strains were cultured aerobically on blood agar at 37 °C for 24 h.
(§2) The susceptibility of microorganisms to the synthesized compounds was determined using the broth microdilution assay, following the guidelines outlined by CLSI [30]. The final concentrations of the tested compounds in Mueller–Hinton broth, in 96-well plates (VWR International Sp. z o.o., Gdańsk, Poland), ranged from 0.125 to 256 mg/L. To prepare the bacterial suspension, bacteria from the overnight culture on blood agar were diluted in sterile 0.9% NaCl to achieve a turbidity equivalent to a 0.5 McFarland standard. The adjusted inoculum suspension was further diluted in Mueller–Hinton broth so that after inoculation, each well contained approximately 5 × 10^5 CFU/mL. Aliquots (5 µL) of bacterial suspension were added to each solution. The sterility control (containing the broth) and the growth control (containing the reference strain in broth without the tested compound) were also set up. The antibiotics vancomycin and gentamicin were used as a control. The plates were incubated at 37 °C under aerobic conditions. The results are expressed as the MIC of the tested compounds, which was defined as the lowest concentration at which no visible growth of bacteria (no turbidity) was observed. The assay was performed in triplicate.

In data set [1] the test system is normal human fibroblasts, BJ line (CRL-2522). Briefly: Neutral red cytotoxicity assay. To be noted: 24 h. As for the experimental part: Normal human fibroblasts, BJ line (CRL-2522™), Eagle’s Minimum Essential Medium (EMEM), and fetal bovine serum (FBS) were obtained from ATCC (Manassas, VA, USA). Cells were grown following ATCC guidelines in an EMEM medium supplemented with 10% FBS at 37 °C in a humidified atmosphere of 95% air and 5% CO2 in a HeraCell 150 incubator (Heraeus, Hanau, Germany).
The assay was performed as per previously published protocols with slight modifications. In brief, BJ cells were plated in 96-well tissue culture plates (Nest Scientific Biotechnology, Wuxi, China) at a density of 6 × 10^3 cells per well and allowed to attach for 24 h in EMEM supplemented with 10% FBS. After the incubation period, the medium was removed, and 10% dimethyl sulfoxide (DMSO)-treated cells (Sigma-Aldrich, St. Louis, MO, USA) were used as a positive control, while nontreated cells served as a negative control.
The cells were treated with peptides suspended in EMEM medium supplemented with 10% FBS and incubated for 24 h at 37 °C in a humidified atmosphere of 95% air and 5% CO2. After the incubation, the supernatants were discarded and replaced with 100 µL of non-supplemented EMEM containing 0.33% neutral red (Sigma-Aldrich) diluted 1:40. The cells were incubated for an additional 2 h at 37 °C. Following incubation, the neutral red medium was removed, and the cells were washed with 100 µL of phosphate-buffered saline (PBS) per well.
To extract the dye into the solution, the cells were treated with 150 µL of a solution containing 50% ethanol (Alchem, Torun, Poland), 49% distilled H2O, and 1% acetic acid (Alchem, Torun, Poland) and incubated under shaking at 37 °C for 10 min. Absorbance was measured at 540 nm using a Synergy H1 plate reader (BioTek Instruments, Winooski, VT, USA). The assay was performed in triplicate to ensure reproducibility.

The next data set has as its system E. faecalis ATCC 29212. As to the kind of experiment: microbe, parasite or virus in culture. It counts as cell-based, Enterococcus faecalis. As for the experimental part:
as §1, §2

The test system of data set [2] is E. faecium VRE (clinical isolate UCK 7979384). Briefly: microbe, parasite or virus in culture. It counts as cell-based. The note with it: read-out: MIC E. faecium VRE. As for the experimental part:
as §1, §2

A short description of the next data set: PAMPA-BBB assay. To be noted: 20 h incubation, mean ± SEM. The source says: This assay utilized a 96-well plate assembly consisting of a filter plate pre-coated with polar brain lipids (donor plate) and a receiver plate (acceptor plate). The phospholipid mixture used to coat the membrane was extracted from porcine polar brain lipids, with the following composition: 12.6% phosphatidylcholine, 33.1% phosphatidylethanolamine, 18.5% phosphatidylserine, 4.1% phosphatidylinositol, 0.8% phosphatidic acid, and 30.9% of other compounds, including cerebrosides, sulfatides, and pigments.
In each well of the donor filtration plate (Multiscreen Filter Plate, PVDF with a pore size of 0.45 µm), 5 µL of the phospholipid mixture in n-dodecane (20 mg/mL) was carefully applied to form the artificial membrane. After coating, 200 µL of phosphate-buffered saline (PBS at pH 7.4) containing 5% dimethyl sulfoxide (DMSO) as a co-solvent, and the test compound (at a concentration of 20 µM) was added to each well of the donor plate (in triplicate). […] The plate lid was then replaced and the resulting assembled donor–acceptor plates were incubated at room temperature for 20 h. After this time, the donor plate was removed and solutions from each well of both acceptor and donor plates were collected for further analysis. The concentrations of the tested compounds were determined by LC-MS. The analysis was conducted by UHPLC-MS system (Shimadzu Nexera X2 with LCMS-2020 detector) using a ReproSil Pure 120 ODS-3 column (Dr. Maisch GmbH, 100 × 2 mm, 2.4 µm particle size) with several gradients of ACN with 0.1% FA and 0.05% TFA at a flow rate of 0.3 mL/min. The eluted solution was monitored by an ESI-MS detector operated in a selected ion monitoring mode (SIM). […] CE=CD×VD+CA×VA/VD+VA

Another data set concerns S. aureus ATCC 29213. Briefly: microbe, parasite or virus in culture. It counts as cell-based, Staphylococcus aureus. The method, then:
as §1, §2

For data set [3], the system named is S. aureus MRSA (clinical isolate no 203). As to the kind of experiment: microbe, parasite or virus in culture. To be noted: read-out: MIC S. aureus MRSA. It counts as cell-based, Staphylococcus aureus. As for the experimental part: as §1, §2
The subject of data set [4] is Pseudomonas aeruginosa (ATCC 27853). Briefly: Broth microdilution MIC, P. aeruginosa reference strain. It counts as cell-based. As for the experimental part:
as §1
The susceptibility of microorganisms to the synthesized compounds was determined using the broth microdilution assay, following the guidelines outlined by CLSI [30]. The final concentrations of the tested compounds in Mueller–Hinton broth, in 96-well plates (VWR International Sp. z o.o., Gdańsk, Poland), ranged from 0.125 to 256 mg/L. To prepare the bacterial suspension, bacteria from the overnight culture on blood agar were diluted in sterile 0.9% NaCl to achieve a turbidity equivalent to a 0.5 McFarland standard. […] The results are expressed as the MIC of the tested compounds, which was defined as the lowest concentration at which no visible growth of bacteria (no turbidity) was observed. […]

Another data set has as its system S. aureus (ATCC 29213). Briefly: Checkerboard assay, interaction of Van with CPP components (FICI). It counts as cell-based, Staphylococcus aureus. The note with it: Van alone.

Values after ≈ are worked out from the molar mass of the structure shown. Values joined by “and” are separate entries in the source; they are usually repeats but may differ in a detail not shown here. Identical values can stand only once. Like-named read-outs stand apart in the source and are kept apart here.

Description for S. aureus (ATCC 29213): To determine possible interactions between Van and the CPP components of the conjugates, fractional inhibitory concentrations (FICs) were calculated for the tested compounds (Prop-Tat (47–57) and Prop-Arg9) using the following formula: FICA = MICA(with B)/MICA, FICB = MICB(with A)/MICB. To determine MICA(with B) and MICB(with A), a checkerboard assay was carried out in 96-well microtiter plates. Each test was performed in duplicate. The concentration range was 1.07 to 8 µg/mL for Van, 2.13 to 16 µg/mL for Prop-Tat (47–58), and 8.54 to 64 µg/mL for Prop-Arg9. Aliquots of 5 μL of bacterial suspension (at a concentration of 10^7 CFU/mL) were added to each well of the 96-well plate containing 100 μL of test compounds in Mueller–Hinton broth. The bacterial strain used was S. aureus (ATCC 29213). The plates were then incubated at 37 °C for 24 h. […] FIC values for Van, Prop-Tat (47–57) and Prop-Arg9 were calculated as follows: FICVan = MICVan+Prop-Tat (47–57) or FICVan = MICVan+Prop-Arg9 divided by MIC of Van alone, FICProp-Tat (47–57) = MICProp-Tat (47–57)+Van divided by MIC of Prop-Tat (47–57) alone, and FICProp-Arg9 = MICProp-Arg9+Van divided by MIC of Prop-Arg9 alone. The FIC indexes (FICIs) were calculated for the tested compounds as the sum of FICA and FICB.

With `C#CC(=O)N[C@@H](Cc1ccc(O)cc1)C(=O)NCC(=O)N[C@@H](CCCNC(=N)N)C(=O)N[C@@H](CCCCN)C(=O)N[C@@H](CCCCN)C(=O)N[C@@H](CCCNC(=N)N)C(=O)N[C@@H](CCCNC(=N)N)C(=O)N[C@@H](CCC(N)=O)C(=O)N[C@@H](CCCNC(=N)N)C(=O)N[C@@H](CCCNC(=N)N)C(=O)N[C@@H](CCCNC(=N)N)C(N)=O` [compound 4], the MIC against E. coli ATCC 25922 was 79.5 µM (≈ 128 µg/mL); in the data set with E. faecalis ATCC 29212 (reference strain, read-out: MIC E. faecalis ATCC 29212), 159 µM (≈ 256 µg/mL); in data set [2] (vancomycin-resistant clinical isolate UCK 7979384), 19.9 µM (≈ 32.1 µg/mL); in the data set with S. aureus ATCC 29213 (reference strain, read-out: MIC S. aureus ATCC 29213), 4.97 µM (≈ 8.01 µg/mL); in data set [3] (methicillin-resistant clinical isolate no 203), 19.9 µM (≈ 32.1 µg/mL). In addition, the “effect on cell viability” value in data set [1] (across the tested concentration range) is given as “did not significantly affect cell viability”. Also, in “PAMPA-BBB assay”, the “R, mass retention” value turned out to be 3.3 ± 0.7%.

Take `CNC(C)C1CCC(N)C(OC2C(N)CC(N)C(OC3OCC(C)(O)C(NC)C3O)C2O)O1` (stereo not shown) [Gentamicin]: the MIC in the data set with E. coli ATCC 25922 (Escherichia coli, ATCC25922) is 1.95 µg/mL and 4.08 µM; with E. faecalis ATCC 29212 (Enterococcus faecalis, ATCC29212, reference strain, read-out: MIC E. faecalis ATCC 29212), 7.8 µg/mL and 16.3 µM; in [4] (Pseudomonas aeruginosa, ATCC27853, reference strain), 4.08 µM (≈ 1.95 µg/mL); in [2] (Enterococcus faecium, VRE, vancomycin-resistant clinical isolate UCK 7979384) it was 7.8 µg/mL and 16.3 µM; in the data set on S. aureus ATCC 29213 (Staphylococcus aureus, ATCC29213, reference strain, read-out: MIC S. aureus ATCC 29213) it was 0.24 µg/mL and 0.5 µM; in data set [3] (Staphylococcus aureus, methicillin-resistant clinical isolate no 203), 0.48 µg/mL and 1 µM.

For the compound `CN[C@H](CC(C)C)C(=O)N[C@H]1C(=O)N[C@@H](CC(N)=O)C(=O)N[C@H]2C(=O)N[C@H]3C(=O)N[C@H](C(=O)N[C@H](C(=O)O)c4cc(O)cc(O)c4-c4cc3ccc4O)[C@H](O)c3ccc(c(Cl)c3)Oc3cc2cc(c3O[C@@H]2O[C@H](CO)[C@@H](O)[C@H](O)[C@H]2O[C@H]2C[C@](C)(N)[C@H](O)[C@H](C)O2)Oc2ccc(cc2Cl)[C@H]1O` [Vancomycin], the MICA in the data set on S. aureus (ATCC 29213) was found to be 2 µg/mL. Further, the “concentration above which cytotoxicity was shown” value in [1] was “above 16 µg/mL”. Further, the “effect on cell viability” value in [1] (at concentrations up to 4 µg/mL) is given as “did not substantially affect cell viability”. Besides, the MIC is 8 µg/mL and 5.38 µM in the data set on E. faecalis ATCC 29212 (Enterococcus faecalis, ATCC29212, read-out: MIC E. faecalis ATCC 29212); > 256 µg/mL and > 172 µM in [2] (Enterococcus faecium, VRE); 2 µg/mL and 1.35 µM in the data set on S. aureus ATCC 29213 (Staphylococcus aureus, ATCC29213, read-out: MIC S. aureus ATCC 29213); 1.5 µg/mL and 1.01 µM in data set [3] (Staphylococcus aureus). The “inhibitory activity against P. aeruginosa” value in data set [4] (at the concentrations tested) is recorded as “resistant”. Further, the “R, mass retention” value in the data set “PAMPA-BBB assay” came out at 11.3 ± 3.4%.

(Values after article PMC11643744, “New Conjugates of Vancomycin with Cell-Penetrating Peptides—Synthesis, Antimicrobial Activity, Cytotoxicity, and BBB Permeability Studies” (Molecules, 2024).)
